What all share (format): functional
Experiment [1] concerns the target Photoreceptor-specific nuclear receptor (Homo sapiens, UniProt Q9Y5X4).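 Note: potency for compounds that break the NR2E3 corepressor complex and count as activators.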
The target in experiment [2] is T1, Replicative DNA helicase DnaB (Mycobacterium tuberculosis, UniProt P9WMR3).
T1 sequence (P9WMR3 whole entry): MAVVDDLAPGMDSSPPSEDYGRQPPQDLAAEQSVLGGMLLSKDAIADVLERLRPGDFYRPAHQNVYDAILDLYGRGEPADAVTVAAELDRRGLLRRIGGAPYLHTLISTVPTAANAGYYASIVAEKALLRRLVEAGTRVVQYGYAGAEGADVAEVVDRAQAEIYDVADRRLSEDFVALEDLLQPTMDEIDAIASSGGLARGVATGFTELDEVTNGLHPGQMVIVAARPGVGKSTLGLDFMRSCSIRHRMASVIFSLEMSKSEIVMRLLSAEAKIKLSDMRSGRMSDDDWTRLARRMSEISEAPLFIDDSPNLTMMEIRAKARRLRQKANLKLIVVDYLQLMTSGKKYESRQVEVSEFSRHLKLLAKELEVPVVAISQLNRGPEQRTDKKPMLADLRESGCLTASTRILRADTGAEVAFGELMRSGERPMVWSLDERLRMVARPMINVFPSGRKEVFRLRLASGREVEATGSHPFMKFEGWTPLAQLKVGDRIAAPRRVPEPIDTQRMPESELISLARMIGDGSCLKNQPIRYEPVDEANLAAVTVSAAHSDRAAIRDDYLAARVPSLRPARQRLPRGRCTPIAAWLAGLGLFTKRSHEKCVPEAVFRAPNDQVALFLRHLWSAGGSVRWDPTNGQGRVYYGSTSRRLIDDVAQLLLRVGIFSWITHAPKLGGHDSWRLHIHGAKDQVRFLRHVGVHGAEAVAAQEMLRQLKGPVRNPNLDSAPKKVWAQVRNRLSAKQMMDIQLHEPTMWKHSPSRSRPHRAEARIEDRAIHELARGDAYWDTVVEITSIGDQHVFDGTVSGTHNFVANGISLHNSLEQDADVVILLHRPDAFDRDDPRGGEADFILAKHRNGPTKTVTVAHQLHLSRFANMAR
Put plainly: DnaB intein splicing inhibitors, dose response, biochemical, cell-free fluorescence (AID 449749).

In a further experiment the target is T2, Protein RecA (Mycobacterium tuberculosis, UniProt P9WHJ3).
T2 sequence (P9WHJ3 whole entry): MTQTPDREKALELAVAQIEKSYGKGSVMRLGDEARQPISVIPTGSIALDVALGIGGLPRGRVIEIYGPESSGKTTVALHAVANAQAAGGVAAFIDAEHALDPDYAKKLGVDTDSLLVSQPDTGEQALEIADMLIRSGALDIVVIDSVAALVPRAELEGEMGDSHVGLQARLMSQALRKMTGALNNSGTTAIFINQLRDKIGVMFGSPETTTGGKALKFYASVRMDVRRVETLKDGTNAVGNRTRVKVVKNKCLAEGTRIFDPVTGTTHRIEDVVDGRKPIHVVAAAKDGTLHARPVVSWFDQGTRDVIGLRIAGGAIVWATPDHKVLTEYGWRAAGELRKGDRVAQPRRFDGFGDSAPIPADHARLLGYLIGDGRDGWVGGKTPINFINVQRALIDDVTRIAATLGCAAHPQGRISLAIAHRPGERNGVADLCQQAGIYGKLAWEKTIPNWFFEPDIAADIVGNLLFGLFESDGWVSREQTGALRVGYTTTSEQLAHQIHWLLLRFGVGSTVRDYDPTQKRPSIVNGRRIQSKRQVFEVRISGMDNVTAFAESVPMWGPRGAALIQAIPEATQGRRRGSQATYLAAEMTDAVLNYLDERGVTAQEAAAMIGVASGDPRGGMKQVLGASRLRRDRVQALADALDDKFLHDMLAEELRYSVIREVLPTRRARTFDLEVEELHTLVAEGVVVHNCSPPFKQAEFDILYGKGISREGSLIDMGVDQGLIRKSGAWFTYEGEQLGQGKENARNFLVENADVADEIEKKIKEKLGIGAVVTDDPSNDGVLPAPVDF
Nature of the experiment: Fluorescence Cell-Free Homogeneous Dose Retest to Identify Inhibitors of RecA-Intein Splicing Activity. [Related pubchem assays (depositor defined):AID2097, AID2223, AID489010, AID492950].

For experiment [3], the target named is Dual specificity protein kinase CLK4 (Homo sapiens, UniProt Q9HAZ1).
Sequence of Dual specificity protein kinase CLK4 (Q9HAZ1 whole entry): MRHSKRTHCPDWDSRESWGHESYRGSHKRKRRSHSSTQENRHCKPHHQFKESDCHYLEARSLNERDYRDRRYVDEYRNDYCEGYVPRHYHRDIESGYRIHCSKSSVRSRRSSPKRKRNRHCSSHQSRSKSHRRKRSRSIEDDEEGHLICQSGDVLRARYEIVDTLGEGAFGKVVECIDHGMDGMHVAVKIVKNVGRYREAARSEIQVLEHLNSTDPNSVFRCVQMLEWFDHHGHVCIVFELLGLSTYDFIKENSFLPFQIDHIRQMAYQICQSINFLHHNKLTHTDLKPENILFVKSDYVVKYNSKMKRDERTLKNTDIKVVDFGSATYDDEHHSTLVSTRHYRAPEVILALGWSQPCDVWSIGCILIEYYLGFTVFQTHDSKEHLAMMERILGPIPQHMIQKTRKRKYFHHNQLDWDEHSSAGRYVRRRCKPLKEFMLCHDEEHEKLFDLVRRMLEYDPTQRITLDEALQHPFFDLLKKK
In experiment [4] the target is cAMP-dependent protein kinase catalytic subunit PRKX (Homo sapiens, UniProt P51817).
Sequence of cAMP-dependent protein kinase catalytic subunit PRKX (P51817 whole entry): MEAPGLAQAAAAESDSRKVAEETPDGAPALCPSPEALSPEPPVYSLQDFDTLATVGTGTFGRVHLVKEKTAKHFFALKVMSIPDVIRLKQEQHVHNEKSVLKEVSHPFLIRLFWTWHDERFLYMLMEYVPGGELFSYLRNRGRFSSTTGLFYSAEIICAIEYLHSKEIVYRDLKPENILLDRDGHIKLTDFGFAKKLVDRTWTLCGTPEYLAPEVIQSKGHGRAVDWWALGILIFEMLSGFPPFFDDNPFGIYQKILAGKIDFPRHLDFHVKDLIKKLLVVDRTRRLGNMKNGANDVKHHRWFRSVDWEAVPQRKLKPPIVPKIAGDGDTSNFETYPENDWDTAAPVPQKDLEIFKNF
The target of experiment [5] is 5'-AMP-activated protein kinase catalytic subunit alpha-1 (Homo sapiens, UniProt Q13131).
Sequence of 5'-AMP-activated protein kinase catalytic subunit alpha-1 (Q13131 whole entry): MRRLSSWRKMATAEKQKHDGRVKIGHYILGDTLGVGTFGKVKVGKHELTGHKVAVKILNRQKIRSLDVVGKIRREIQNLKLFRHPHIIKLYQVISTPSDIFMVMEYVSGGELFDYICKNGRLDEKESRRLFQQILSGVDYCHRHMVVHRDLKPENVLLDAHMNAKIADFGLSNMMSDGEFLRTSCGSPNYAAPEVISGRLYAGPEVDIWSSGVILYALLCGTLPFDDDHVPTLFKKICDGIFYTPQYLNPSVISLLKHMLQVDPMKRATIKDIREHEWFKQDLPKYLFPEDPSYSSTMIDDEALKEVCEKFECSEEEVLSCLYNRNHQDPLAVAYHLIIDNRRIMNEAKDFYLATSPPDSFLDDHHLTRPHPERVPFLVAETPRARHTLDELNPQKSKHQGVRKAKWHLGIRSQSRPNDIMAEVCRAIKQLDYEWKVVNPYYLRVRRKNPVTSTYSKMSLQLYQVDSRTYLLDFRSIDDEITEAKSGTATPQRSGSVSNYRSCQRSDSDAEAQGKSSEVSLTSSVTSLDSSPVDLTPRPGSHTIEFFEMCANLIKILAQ
The nature of experiment [6]: CellTiter-Glo luminescence survival assay, SW480 colon tumor line, concentration-response curve, half-maximal inhibitory concentration (AID 1117338).

Calls of active or inactive are those of the source.

Sequence of Photoreceptor-specific nuclear receptor (Q9Y5X4 whole entry): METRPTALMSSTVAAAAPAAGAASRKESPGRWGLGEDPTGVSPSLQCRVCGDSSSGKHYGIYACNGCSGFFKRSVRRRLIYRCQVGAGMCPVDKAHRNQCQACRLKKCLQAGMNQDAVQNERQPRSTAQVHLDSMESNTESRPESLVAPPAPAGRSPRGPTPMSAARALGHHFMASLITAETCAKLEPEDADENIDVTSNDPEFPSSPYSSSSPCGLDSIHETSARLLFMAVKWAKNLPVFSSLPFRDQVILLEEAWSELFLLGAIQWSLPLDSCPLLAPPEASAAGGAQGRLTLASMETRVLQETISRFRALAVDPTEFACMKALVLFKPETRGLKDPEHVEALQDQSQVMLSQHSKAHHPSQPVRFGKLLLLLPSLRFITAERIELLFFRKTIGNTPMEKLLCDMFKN

As for `O=C1C=C(N2CCOCC2)c2ccccc2C1=O`, the IC50 in experiment [1] is > 39800 nM (not active). In experiment [2], the AC50 is 1050 nM (active). For the same molecule, the EC50 at Protein RecA was 150 nM (active).
For the molecule `N#Cc1ccc2[nH]c(O)c(-c3ccc(CN4CCOCC4)cn3)c2c1` [AZD-1080], the Ki in experiment [3] is 2510 nM (active); in experiment [4] it was > 2510 nM (inactive); in experiment [5], > 2510 nM (inactive).
Regarding `CCc1oc2ccccc2c1C(=O)c1cc(Br)c(O)c(Br)c1` [BENZBROMARONE], the results for the IC50 in experiment [6] and in experiment [1] were 1740 nM (active) and > 39800 nM (not active), respectively. The AC50 in experiment [2] is 2750 nM (active). Moreover, at Protein RecA, the concentration for a half-maximal effect (EC50) is 11500 nM (active).

These data come from ChEMBL document CHEMBL1201862, “PubChem BioAssay data set” (2004).
